Assay results: patent US12077503B2, “Substituted cyclic amides and their use as herbicides” (FMC CORPORATION, priority 2015, dated 2024)

Experiments:
Format in all cases: in vivo
[1] = system: barnyardgrass (Echinochloa crus-galli); test: Test G Pre-Emergence Protocol; details: Echinochloa crus-galli, pre-emergence, 312 h, evaluated after 13 days; for pest or weed control at 15.625 g/ha: 15.625 g ai/ha, read-out: Barnyard grass damage rating (100=total damage to plant; 0=no damage to plant); for pest or weed control at 62.5 g/ha: 62.5 g ai/ha, 100=total damage to plant, 0=no damage to plant, read-out: plant damage rating, Barnyardgrass; for pest or weed control at 250 g/ha: 250 g ai/ha, read-out: Barnyardgrass damage rating (100=total damage to plant; 0=no damage to plant)
Outline: (§1)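 Pots of seeds in standard soil were grown for one day in a glasshouse (24/16 °C day/night, 14 h light, 65% humidity), then sprayed with compound in acetone/water 50:50 with 0.5% Tween 20 at 15.625, 62.5 or 250 g/ha. Damage was scored after 13 days on a 0 (none) to 100 (total) scale.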

corn (Zea mays) [2] = test: Test G Pre-Emergence Protocol; details: Zea mays, pre-emergence, 312 h, evaluated after 13 days; for plant injury at 15.625 g/ha: 15.625 g ai/ha; for plant injury at 15.625 g/ha / plant injury at 250 g/ha: read-out: Corn damage rating (100=total damage to plant; 0=no damage to plant); for plant injury at 62.5 g/ha: 62.5 g ai/ha, 100=total damage to plant, 0=no damage to plant, read-out: plant damage rating, Corn; for plant injury at 250 g/ha: 250 g ai/ha
Outline: as §1

[3] = system: giant foxtail (Setaria faberi); test: Test G Pre-Emergence Protocol; details: Setaria faberi, pre-emergence, 312 h, evaluated after 13 days; for pest or weed control at 15.625 g/ha: 15.625 g ai/ha; for pest or weed control at 15.625 g/ha / pest or weed control at 250 g/ha: read-out: Foxtail, Giant damage rating (100=total damage to plant; 0=no damage to plant); for pest or weed control at 62.5 g/ha: 62.5 g ai/ha, 100=total damage to plant, 0=no damage to plant, read-out: plant damage rating, Foxtail, Giant; for pest or weed control at 250 g/ha: 250 g ai/ha
Outline: as §1

[4] = system: ivy-leaved morning glory (Ipomoea hederacea); test: Test G Pre-Emergence Protocol; details: Ipomoea, pre-emergence, 312 h, evaluated after 13 days; for pest or weed control at 15.625 g/ha: 15.625 g ai/ha, read-out: Morning-glory, Ivy-leaved damage rating (100=total damage to plant; 0=no damage to plant); for pest or weed control at 62.5 g/ha: 62.5 g ai/ha, 100=total damage to plant, 0=no damage to plant, read-out: plant damage rating, Morningglory, Ivy-leaved; for pest or weed control at 250 g/ha: 250 g ai/ha, read-out: Morningglory, Ivy-leaved damage rating (100=total damage to plant; 0=no damage to plant)
Outline: as §1

[5] = system: redroot pigweed (Amaranthus retroflexus); test: Test G Pre-Emergence Protocol; details: Amaranthus retroflexus, pre-emergence, 312 h, evaluated after 13 days; for pest or weed control at 15.625 g/ha: 15.625 g ai/ha; for pest or weed control at 15.625 g/ha / pest or weed control at 250 g/ha: read-out: Pigweed, Redroot damage rating (100=total damage to plant; 0=no damage to plant); for pest or weed control at 62.5 g/ha: 62.5 g ai/ha, 100=total damage to plant, 0=no damage to plant, read-out: plant damage rating, Pigweed, Redroot; for pest or weed control at 250 g/ha: 250 g ai/ha
Outline: as §1

[6] = system: velvetleaf (Abutilon theophrasti); test: Test G Pre-Emergence Protocol; details: Abutilon theophrasti, pre-emergence, 312 h, evaluated after 13 days; for pest or weed control at 15.625 g/ha: 15.625 g ai/ha; for pest or weed control at 15.625 g/ha / pest or weed control at 250 g/ha: read-out: Velvetleaf damage rating (100=total damage to plant; 0=no damage to plant); for pest or weed control at 62.5 g/ha: 62.5 g ai/ha, 100=total damage to plant, 0=no damage to plant, read-out: plant damage rating, Velvetleaf; for pest or weed control at 250 g/ha: 250 g ai/ha
Outline: as §1

[7] = system: barnyardgrass (Echinochloa crus-galli); test: Test G Post-Emergence Protocol; details: Echinochloa crus-galli, post-emergence, 312 h; for pest or weed control at 15.625 g/ha: 15.625 g ai/ha, evaluated after 13 days (100=total damage to plant; 0=no damage to plant), read-out: Barnyardgrass damage rating; for pest or weed control at 62.5 g/ha: 62.5 g ai/ha, read-out: Barnyardgrass damage rating (100=total damage to plant; 0=no damage to plant); for pest or weed control at 62.5 g/ha / pest or weed control at 250 g/ha: evaluated after 13 days; for pest or weed control at 250 g/ha: 250 g ai/ha, read-out: damage to plant, Barnyardgrass (100=total damage to plant; 0=no damage to plant)
Outline: (§2)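 Eight days post-sowing, plants received a spray of test compound (acetone/water 50:50, 0.5% Tween 20) at 15.625, 62.5 or 250 g/ha. Glasshouse regime thereafter: 24/16 °C, 14 h light, 65% humidity. Assessment after 13 days on a 0–100 damage scale.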

corn (Zea mays) [8] = test: Test G Post-Emergence Protocol; details: Zea mays, post-emergence, 312 h; for plant injury at 15.625 g/ha: 15.625 g ai/ha, evaluated after 13 days (100=total damage to plant; 0=no damage to plant), read-out: Corn damage rating; for plant injury at 62.5 g/ha: 62.5 g ai/ha, read-out: Corn damage rating (100=total damage to plant; 0=no damage to plant); for plant injury at 62.5 g/ha / plant injury at 250 g/ha: evaluated after 13 days; for plant injury at 250 g/ha: 250 g ai/ha, read-out: damage to plant, Corn (100=total damage to plant; 0=no damage to plant)
Outline: as §2

[9] = system: giant foxtail (Setaria faberi); test: Test G Post-Emergence Protocol; details: Setaria faberi, post-emergence, 312 h; for pest or weed control at 15.625 g/ha: 15.625 g ai/ha, evaluated after 13 days (100=total damage to plant; 0=no damage to plant), read-out: Foxtail, Giant damage rating; for pest or weed control at 62.5 g/ha: 62.5 g ai/ha, read-out: Foxtail, Giant damage rating (100=total damage to plant; 0=no damage to plant); for pest or weed control at 62.5 g/ha / pest or weed control at 250 g/ha: evaluated after 13 days; for pest or weed control at 250 g/ha: 250 g ai/ha, read-out: damage to plant, Foxtail, Giant (100=total damage to plant; 0=no damage to plant)
Outline: as §2

[10] = system: ivy-leaved morning glory (Ipomoea hederacea); test: Test G Post-Emergence Protocol; details: Ipomoea, post-emergence, 312 h; for pest or weed control at 15.625 g/ha: 15.625 g ai/ha, evaluated after 13 days (100=total damage to plant; 0=no damage to plant), read-out: Morningglory, Ivy-leaved damage rating; for pest or weed control at 62.5 g/ha: 62.5 g ai/ha, read-out: Morningglory, Ivy-leaved damage rating (100=total damage to plant; 0=no damage to plant); for pest or weed control at 62.5 g/ha / pest or weed control at 250 g/ha: evaluated after 13 days; for pest or weed control at 250 g/ha: 250 g ai/ha, read-out: damage to plant, Morningglory, Ivy-leaved (100=total damage to plant; 0=no damage to plant)
Outline: as §2

[11] = system: redroot pigweed (Amaranthus retroflexus); test: Test G Post-Emergence Protocol; details: Amaranthus retroflexus, post-emergence, 312 h; for pest or weed control at 15.625 g/ha: 15.625 g ai/ha, evaluated after 13 days (100=total damage to plant; 0=no damage to plant), read-out: Pigweed, Redroot damage rating; for pest or weed control at 62.5 g/ha: 62.5 g ai/ha, read-out: Pigweed, Redroot damage rating (100=total damage to plant; 0=no damage to plant); for pest or weed control at 62.5 g/ha / pest or weed control at 250 g/ha: evaluated after 13 days; for pest or weed control at 250 g/ha: 250 g ai/ha, read-out: damage to plant, Pigweed, Redroot (100=total damage to plant; 0=no damage to plant)
Outline: as §2

[12] = system: velvetleaf (Abutilon theophrasti); test: Test G Post-Emergence Protocol; details: Abutilon theophrasti, post-emergence, 312 h; for pest or weed control at 15.625 g/ha: 15.625 g ai/ha, evaluated after 13 days (100=total damage to plant; 0=no damage to plant), read-out: Velvetleaf damage rating; for pest or weed control at 62.5 g/ha: 62.5 g ai/ha, read-out: Velvetleaf damage rating (100=total damage to plant; 0=no damage to plant); for pest or weed control at 62.5 g/ha / pest or weed control at 250 g/ha: evaluated after 13 days; for pest or weed control at 250 g/ha: 250 g ai/ha, read-out: damage to plant, Velvetleaf (100=total damage to plant; 0=no damage to plant)
Outline: as §2

Cc1nccc(NC(=O)[C@@H]2C(=O)N(C)C[C@H]2c2ccc(C(F)(F)F)cc2)n1 (racemic) [Compound 1641]
0%: pest or weed control at 15.625 g/ha [1] | pest or weed control at 62.5 g/ha [1] | pest or weed control at 250 g/ha [1] | plant injury at 15.625 g/ha (corn (Zea mays) [2]) | plant injury at 62.5 g/ha (corn (Zea mays) [2]) | plant injury at 250 g/ha (corn (Zea mays) [2]) | pest or weed control at 15.625 g/ha [3] | pest or weed control at 62.5 g/ha [3] | pest or weed control at 250 g/ha [3] | pest or weed control at 15.625 g/ha [4] | pest or weed control at 62.5 g/ha [4] | pest or weed control at 250 g/ha [4] | pest or weed control at 15.625 g/ha [5] | pest or weed control at 62.5 g/ha [5] | pest or weed control at 250 g/ha [5] | pest or weed control at 15.625 g/ha [6] | pest or weed control at 62.5 g/ha [6] | pest or weed control at 250 g/ha [6] | pest or weed control at 15.625 g/ha [7] | pest or weed control at 62.5 g/ha [7] | pest or weed control at 250 g/ha [7] | plant injury at 15.625 g/ha (corn (Zea mays) [8]) | plant injury at 62.5 g/ha (corn (Zea mays) [8]) | plant injury at 250 g/ha (corn (Zea mays) [8]) | pest or weed control at 15.625 g/ha [9] | pest or weed control at 62.5 g/ha [9] | pest or weed control at 250 g/ha [9] | pest or weed control at 15.625 g/ha [10] | pest or weed control at 62.5 g/ha [10] | pest or weed control at 250 g/ha [10] | pest or weed control at 15.625 g/ha [11] | pest or weed control at 62.5 g/ha [11] | pest or weed control at 250 g/ha [11] | pest or weed control at 15.625 g/ha [12] | pest or weed control at 62.5 g/ha [12] | pest or weed control at 250 g/ha [12]

CSc1nccc(NC(=O)[C@@H]2C(=O)N(C)C[C@H]2c2ccc(C(F)(F)F)cc2)n1 (racemic) [Compound 1516]
0%: pest or weed control at 15.625 g/ha [1] | pest or weed control at 62.5 g/ha [1] | pest or weed control at 250 g/ha [1] | plant injury at 15.625 g/ha (corn (Zea mays) [2]) | plant injury at 62.5 g/ha (corn (Zea mays) [2]) | plant injury at 250 g/ha (corn (Zea mays) [2]) | pest or weed control at 15.625 g/ha [3] | pest or weed control at 62.5 g/ha [3] | pest or weed control at 250 g/ha [3] | pest or weed control at 15.625 g/ha [4] | pest or weed control at 62.5 g/ha [4] | pest or weed control at 250 g/ha [4] | pest or weed control at 15.625 g/ha [5] | pest or weed control at 62.5 g/ha [5] | pest or weed control at 250 g/ha [5] | pest or weed control at 15.625 g/ha [6] | pest or weed control at 62.5 g/ha [6] | pest or weed control at 250 g/ha [6] | pest or weed control at 15.625 g/ha [7] | pest or weed control at 62.5 g/ha [7] | pest or weed control at 250 g/ha [7] | plant injury at 15.625 g/ha (corn (Zea mays) [8]) | plant injury at 62.5 g/ha (corn (Zea mays) [8]) | plant injury at 250 g/ha (corn (Zea mays) [8]) | pest or weed control at 15.625 g/ha [9] | pest or weed control at 62.5 g/ha [9] | pest or weed control at 250 g/ha [9] | pest or weed control at 15.625 g/ha [10] | pest or weed control at 62.5 g/ha [10] | pest or weed control at 250 g/ha [10] | pest or weed control at 15.625 g/ha [11] | pest or weed control at 62.5 g/ha [11] | pest or weed control at 250 g/ha [11] | pest or weed control at 15.625 g/ha [12] | pest or weed control at 62.5 g/ha [12] | pest or weed control at 250 g/ha [12]
